From paper PMC9612383, “Biological Activity of NHC-Gold-Alkynyl Complexes Derived from 3-Hydroxyflavones” (Pharmaceutics, 2022)

Experiments:
S. enterica 25928 = assay: Disk diffusion test; assay type: cell-based; conditions: complex 5 μg, 24 h incubation; diameter including disk (6 mm)
Description: (§1) To evaluate the antibacterial potential of gold derivatives, […] bacterial strains were selected: E. coli, P. aeruginosa, S. enterica, E. faecalis, L. monocytogenes, S. epidermidis, S. aureus. Dis diffusion assay was performed following Clinical & Laboratory Standards Institute (CLSI) recommendations. Active cultures (0.5 McFarland) from all strains were spread onto Mueller–Hinton Agar (MHA, Oxoid, Basingstoke, UK) and disks impregnated with 10 µL of each gold complex or control (DMSO for negative control, phenol for positive control) were placed. Plates were and incubated for 22 h ± 2 h at 37 °C ± 1 °C and then the diameter of the inhibition zone was determined.

E. coli 13216 = assay: Disk diffusion test; assay type: cell-based; conditions: complex 5 μg, 24 h incubation; diameter including disk (6 mm)
Description: (§2) To evaluate the antibacterial potential of gold derivatives, six bacterial strains were selected: E. coli, P. aeruginosa, S. enterica, E. faecalis, L. monocytogenes, S. epidermidis, S. aureus. Dis diffusion assay was performed following Clinical & Laboratory Standards Institute (CLSI) recommendations. […] Plates were and incubated for 22 h ± 2 h at 37 °C ± 1 °C and then the diameter of the inhibition zone was determined.

E. coli 25922 = assay: Disk diffusion test; assay type: cell-based; conditions: complex 5 μg, 24 h incubation; diameter including disk (6 mm)
Description: as §2

E. coli 8739 = assay: Disk diffusion test; assay type: cell-based; conditions: complex 5 μg, 24 h incubation; diameter including disk (6 mm)
Description: as §2

E. faecalis = assay: Disk diffusion test; assay type: cell-based; conditions: complex 5 μg, 24 h incubation; diameter including disk (6 mm)
Description: as §2

L. monocytogenes = assay: Disk diffusion test; assay type: cell-based; conditions: complex 5 μg, 24 h incubation; diameter including disk (6 mm)
Description: as §2

P. aeruginosa = assay: Disk diffusion test; assay type: cell-based; conditions: complex 5 μg, 24 h incubation; diameter including disk (6 mm)
Description: as §2

S. aureus 13565 = assay: Disk diffusion test; assay type: cell-based; conditions: complex 5 μg, 24 h incubation; diameter including disk (6 mm)
Description: as §2

S. aureus 2593 = assay: Disk diffusion test; assay type: cell-based; conditions: complex 5 μg, 24 h incubation; diameter including disk (6 mm)
Description: as §2

S. enterica 14028 = assay: Disk diffusion test; assay type: cell-based; conditions: complex 5 μg, 24 h incubation; diameter including disk (6 mm)
Description: as §2

S. epidermidis = assay: Disk diffusion test; assay type: cell-based; conditions: complex 5 μg, 24 h incubation; diameter including disk (6 mm)
Description: as §2

[1] = test system: panel of Gram-positive and Gram-negative strains; assay: Disk diffusion method, whole panel (summary in words); assay type: cell-based; conditions: whole panel, Gram-positive and Gram-negative strains
Description: as §1
Given that NHC-gold derivatives might display antibacterial activity, we evaluated the antibacterial effect of the complexes toward a panel of Gram-positive and Gram-negative strains using the disk diffusion method. The selected strains are human pathogen or commensal bacteria and the results are summarized on Table 1.

[2] = target: thioredoxin reductase (TrxR) (Escherichia coli, UniProt P0A9P4); conditions: E. coli cell lysates incubated with complex
Description: (§3) For sample preparation, E. coli were lysated by sonication. After ultrasonic homogenization, the lysate was centrifuged 1 min at 13,000 rpm and the pellet was resuspended in extraction buffer. […] Both extraction and reaction buffer consisted of 10 mM Tris-HCl, 1 mM EDTA, 100 mM NaCl and protease inhibitor.

[3] = target: T1, dihydrofolate reductase (DHFR) (Escherichia coli, UniProt P0ABQ4); assay: DHFR activity assay in E. coli lysates; assay type: biochemical; conditions: E. coli lysates incubated with complex; p < 0.05
T1 construct: to 0.01–0.03 mg of cell lysate and completed with reaction buffer; endogenous in cells; host or cells: E. coli (lysate)
Description: as §3

[4] = n-Octanol-water distribution coefficient, shake-flask; assay type: physicochemical; conditions: n-octanol / buffered aqueous solution pH 7.4
Description: The n-octanol-water coefficients of the complexes were determined as previously reported using a shake-flask method. Buffered-saline distilled water (100 mL, phosphate buffer [PO4^3−] = 10 mM, [NaCl] = 0.15 M, pH 7.4) and n-octanol (100 mL) were shaken for 72 h to allow saturation of both phases. Approximately 1 mg of the complexes was dissolved in 5 mL of the aqueous phase and 5 mL of the organic phase were added, mixing for 10 min. The resulting emulsion was centrifuged to separate the phases. The concentration of the compounds in each phase was determined using UV absorbance spectroscopy. LogP was defined as log{[compound(organic)]/[compound(aqueous)]}.

[5] = target: T2, human recombinant thioredoxin reductase (Homo sapiens, UniProt Q16881); assay: Recombinant human TrxR activity (DTNB); assay type: biochemical; conditions: 40 μM of complex; p > 0.05
T2 construct: purchased SIGMA SRP6081
T2 sequence (Q16881 151-649 limits assumed): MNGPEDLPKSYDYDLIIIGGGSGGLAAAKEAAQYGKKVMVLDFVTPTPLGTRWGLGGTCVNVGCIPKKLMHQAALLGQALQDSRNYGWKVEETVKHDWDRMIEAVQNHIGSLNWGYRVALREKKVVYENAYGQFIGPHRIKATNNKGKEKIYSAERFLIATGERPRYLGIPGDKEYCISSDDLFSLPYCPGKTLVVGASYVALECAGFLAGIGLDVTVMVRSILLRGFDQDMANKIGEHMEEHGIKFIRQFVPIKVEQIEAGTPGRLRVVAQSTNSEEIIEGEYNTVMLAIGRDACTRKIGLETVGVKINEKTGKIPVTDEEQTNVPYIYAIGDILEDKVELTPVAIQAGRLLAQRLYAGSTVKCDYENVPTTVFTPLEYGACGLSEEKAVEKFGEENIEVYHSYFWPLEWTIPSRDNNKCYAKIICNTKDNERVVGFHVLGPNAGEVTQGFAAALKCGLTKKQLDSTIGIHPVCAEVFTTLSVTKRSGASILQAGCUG
Description: A measurement of human recombinant thioredoxin reductase was performed as previously described by Quero et al.. Briefly, gold complex was dissolved in DMSO at the desired concentrations and was incubated for 45 min with recombinant human TrxR (SIGMA SRP6081) at 37 °C in a 96 well plate. 25 μL of reaction mix, composed by 500 μL PBS pH 7.4, 80 μL 100 mM EDTA pH 7.5, 20 μL 0.05% BSA, 20 mM 100 μL NADPH, and 300 μL distilled H2O, was then added to each well. 25 μL of 20 mM 5,5′-dithiobis(2-nitrobenzoic acid) (DNTB), dissolved in 100% EtOH, were added to start the reaction and changes in absorbance at 405 nm were monitored every 10 s for 6 min. For comparison purposes, the activity of recombinant TrxR in presence of DMSO was used as negative control.

T1 sequence (P0ABQ4 whole entry): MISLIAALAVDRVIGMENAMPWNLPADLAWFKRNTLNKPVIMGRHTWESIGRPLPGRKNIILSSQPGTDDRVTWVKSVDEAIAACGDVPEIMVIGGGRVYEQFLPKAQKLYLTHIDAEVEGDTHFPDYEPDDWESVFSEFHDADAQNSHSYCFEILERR
Chain of thioredoxin reductase (TrxR) (P0A9P4 whole entry): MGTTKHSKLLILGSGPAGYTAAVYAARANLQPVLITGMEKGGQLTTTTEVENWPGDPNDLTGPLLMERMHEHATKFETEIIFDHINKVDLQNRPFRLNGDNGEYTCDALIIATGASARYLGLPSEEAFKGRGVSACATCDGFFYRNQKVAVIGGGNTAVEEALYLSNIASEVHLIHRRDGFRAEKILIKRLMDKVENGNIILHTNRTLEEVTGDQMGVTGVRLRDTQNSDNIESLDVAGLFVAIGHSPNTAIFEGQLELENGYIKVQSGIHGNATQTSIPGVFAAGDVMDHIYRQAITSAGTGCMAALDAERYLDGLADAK

Cn1cc[n+](C)[c]1[Au-][C]#CCOc1c(-c2ccc(Br)cc2)oc2ccccc2c1=O [1b, [Au(Lb)(IMe)] (R = Br; IMe = C5H10N2)]
Inhibition Zone (S. enterica 25928): 8.90 ± 1.56 mm | Inhibition Zone (E. coli 13216): 10.95 ± 0.64 mm | Inhibition Zone (E. coli 25922): 9.04 ± 2.17 mm | Inhibition Zone (E. coli 8739): 11.10 ± 0.08 mm | Inhibition Zone (E. faecalis): 12.50 ± 1.41 mm | Inhibition Zone (L. monocytogenes): 18.50 ± 1.41 mm | Inhibition Zone (P. aeruginosa): - | Inhibition Zone (S. aureus 13565): 16.58 ± 1.63 mm | Inhibition Zone (S. aureus 2593): 13.76 ± 0.54 mm | Inhibition Zone (S. enterica 14028): 9.39 ± 1.26 mm | Inhibition Zone (S. epidermidis): 25.05 ± 1.48 mm | antibacterial effect (in words) [1]: able to interfere with the development of both Gram positive and Gram negative strains | TrxR activity (percentage respect to control) [2]: did not result in a significative reduction of TrxR activity | DHFR activity (percentage respect to control) [3]: significantly decreased DHFR activity | LogP7.4 (distribution coefficient) [4]: 1.32 | enzymatic activity of recombinant TrxR [5]: no significant changes
